This experiment relates to patients with JAK2 positive refractory MPD. Description: Clinical trial in patients with JAK2 positive refractory MPD. The format is in vivo, human. The conditions noted are these: one trial, eight patients.

We go through 1 molecule from US20090062302A1, “Jak2 Tyrosine Kinase Inhibition” (priority 2006, published 2009).

Regarding `Cc1cc(Nc2cc(N3CCN(C)CC3)nc(Sc3ccc(NC(=O)C4CC4)cc3)n2)n[nH]1` [Compound I, Cyclopropane carboxylic acid {4-[4-(4-methyl-piperazin-1-yl)-6-(5-methyl-2H-pyrazol-3-ylamino)-pyrimidin-2-ylsulphanyl]-phenyl}-amide], the “patients who achieved an objective response” value was “six out of eight”.
